Measured values from US12331044B2, “Inhibitors of histone deacetylase useful for the treatment or prevention of HIV infection” (Merck Sharp & Dohme LLC, priority 2018, dated 2025).
Read-outs that look alike come from different tables or passages of the source.

Key:
HDAC6 = HDAC6 (Homo sapiens (Human), UniProt Q9UBN7)
human HDAC1 = human HDAC1 (Homo sapiens (Human), UniProt Q13547)
human HDAC2 = human HDAC2 (Homo sapiens (Human), UniProt Q92769); assay: HDAC2 inhibition assay (modified FLUOR DE LYS, 384-well); format: biochemical; settings: […] enzyme, 40 μM substrate BML-KI104, 3 h pre-incubation; read-out: HDAC2 IC50
human HDAC8 = human HDAC8 (Homo sapiens (Human), UniProt Q9BY41); assay: HDAC8 inhibition assay (modified FLUOR DE LYS, 384-well); format: biochemical; settings: […] enzyme, 200 μM substrate BML-KI178, 3 h pre-incubation; read-out: HDAC8 IC50
KARN cells (Jurkat 2C4) = assay: cells; settings: Homo sapiens
[1] = target: human HDAC3/SMRT heterodimer (Homo sapiens (Human), UniProt O15379)
[2] = read-out: Karn EC50 nM 0.1% NHS, 0.1% normal human serum, luciferase induction, 2 μM SAHA = 100%
[3] = read-out: Karn EC50 nM 5% NHS, 5% normal human serum, luciferase induction, 2 μM SAHA = 100%

Chain of human HDAC8 (Q9BY41 whole entry): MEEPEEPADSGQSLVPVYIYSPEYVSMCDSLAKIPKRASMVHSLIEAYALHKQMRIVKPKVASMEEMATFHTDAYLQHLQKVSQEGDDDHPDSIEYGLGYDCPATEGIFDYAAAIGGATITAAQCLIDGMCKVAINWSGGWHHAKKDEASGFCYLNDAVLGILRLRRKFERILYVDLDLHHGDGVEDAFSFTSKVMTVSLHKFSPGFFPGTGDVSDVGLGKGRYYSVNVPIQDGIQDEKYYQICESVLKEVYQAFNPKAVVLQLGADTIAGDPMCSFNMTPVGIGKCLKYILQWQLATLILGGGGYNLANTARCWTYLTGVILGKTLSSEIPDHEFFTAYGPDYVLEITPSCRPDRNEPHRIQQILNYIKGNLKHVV
Chain of HDAC6 (Q9UBN7 whole entry): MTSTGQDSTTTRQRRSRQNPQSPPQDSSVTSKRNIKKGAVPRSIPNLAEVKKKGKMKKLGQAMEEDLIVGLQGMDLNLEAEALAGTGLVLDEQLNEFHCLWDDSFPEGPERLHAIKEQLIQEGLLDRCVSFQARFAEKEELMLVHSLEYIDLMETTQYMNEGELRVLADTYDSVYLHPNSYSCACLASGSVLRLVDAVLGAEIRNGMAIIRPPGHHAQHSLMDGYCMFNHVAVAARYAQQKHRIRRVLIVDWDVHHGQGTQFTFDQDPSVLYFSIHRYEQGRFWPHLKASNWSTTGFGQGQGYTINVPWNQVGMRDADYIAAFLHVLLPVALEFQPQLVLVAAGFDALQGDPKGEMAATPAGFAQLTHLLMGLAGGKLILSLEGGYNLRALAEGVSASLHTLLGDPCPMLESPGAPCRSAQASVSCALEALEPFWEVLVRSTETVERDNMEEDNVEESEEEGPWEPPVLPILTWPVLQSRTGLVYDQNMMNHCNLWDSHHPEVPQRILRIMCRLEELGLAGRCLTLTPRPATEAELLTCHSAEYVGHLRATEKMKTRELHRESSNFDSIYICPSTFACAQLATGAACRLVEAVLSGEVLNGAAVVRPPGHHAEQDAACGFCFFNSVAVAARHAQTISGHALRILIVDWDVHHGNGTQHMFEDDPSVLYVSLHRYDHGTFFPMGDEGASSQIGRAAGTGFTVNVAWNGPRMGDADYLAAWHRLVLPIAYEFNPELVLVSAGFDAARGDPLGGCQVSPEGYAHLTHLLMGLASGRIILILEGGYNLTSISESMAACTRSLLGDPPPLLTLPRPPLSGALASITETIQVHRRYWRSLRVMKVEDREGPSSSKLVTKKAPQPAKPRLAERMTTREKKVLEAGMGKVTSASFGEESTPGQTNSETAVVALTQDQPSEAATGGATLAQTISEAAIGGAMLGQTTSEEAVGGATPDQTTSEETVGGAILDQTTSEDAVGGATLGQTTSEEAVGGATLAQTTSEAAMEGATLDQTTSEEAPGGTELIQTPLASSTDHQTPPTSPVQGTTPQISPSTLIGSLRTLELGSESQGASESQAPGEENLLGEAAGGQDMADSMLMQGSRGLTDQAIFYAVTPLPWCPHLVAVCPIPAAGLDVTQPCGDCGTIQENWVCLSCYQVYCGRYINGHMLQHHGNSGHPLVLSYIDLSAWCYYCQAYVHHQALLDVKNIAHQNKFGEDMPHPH
Chain of human HDAC3/SMRT heterodimer (O15379 whole entry): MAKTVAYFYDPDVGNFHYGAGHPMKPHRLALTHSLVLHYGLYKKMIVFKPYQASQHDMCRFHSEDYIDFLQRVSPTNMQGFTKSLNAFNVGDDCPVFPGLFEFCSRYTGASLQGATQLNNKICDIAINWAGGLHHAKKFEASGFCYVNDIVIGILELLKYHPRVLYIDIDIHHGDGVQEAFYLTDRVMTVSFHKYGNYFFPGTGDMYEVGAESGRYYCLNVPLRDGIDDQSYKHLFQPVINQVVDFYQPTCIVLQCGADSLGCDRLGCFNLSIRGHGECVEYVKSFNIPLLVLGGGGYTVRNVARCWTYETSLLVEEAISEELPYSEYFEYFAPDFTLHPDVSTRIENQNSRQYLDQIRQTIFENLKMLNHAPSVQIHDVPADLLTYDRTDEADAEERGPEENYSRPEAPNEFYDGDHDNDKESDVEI
Chain of human HDAC3/SMRT heterodimer (Q9Y618 1-899 partner): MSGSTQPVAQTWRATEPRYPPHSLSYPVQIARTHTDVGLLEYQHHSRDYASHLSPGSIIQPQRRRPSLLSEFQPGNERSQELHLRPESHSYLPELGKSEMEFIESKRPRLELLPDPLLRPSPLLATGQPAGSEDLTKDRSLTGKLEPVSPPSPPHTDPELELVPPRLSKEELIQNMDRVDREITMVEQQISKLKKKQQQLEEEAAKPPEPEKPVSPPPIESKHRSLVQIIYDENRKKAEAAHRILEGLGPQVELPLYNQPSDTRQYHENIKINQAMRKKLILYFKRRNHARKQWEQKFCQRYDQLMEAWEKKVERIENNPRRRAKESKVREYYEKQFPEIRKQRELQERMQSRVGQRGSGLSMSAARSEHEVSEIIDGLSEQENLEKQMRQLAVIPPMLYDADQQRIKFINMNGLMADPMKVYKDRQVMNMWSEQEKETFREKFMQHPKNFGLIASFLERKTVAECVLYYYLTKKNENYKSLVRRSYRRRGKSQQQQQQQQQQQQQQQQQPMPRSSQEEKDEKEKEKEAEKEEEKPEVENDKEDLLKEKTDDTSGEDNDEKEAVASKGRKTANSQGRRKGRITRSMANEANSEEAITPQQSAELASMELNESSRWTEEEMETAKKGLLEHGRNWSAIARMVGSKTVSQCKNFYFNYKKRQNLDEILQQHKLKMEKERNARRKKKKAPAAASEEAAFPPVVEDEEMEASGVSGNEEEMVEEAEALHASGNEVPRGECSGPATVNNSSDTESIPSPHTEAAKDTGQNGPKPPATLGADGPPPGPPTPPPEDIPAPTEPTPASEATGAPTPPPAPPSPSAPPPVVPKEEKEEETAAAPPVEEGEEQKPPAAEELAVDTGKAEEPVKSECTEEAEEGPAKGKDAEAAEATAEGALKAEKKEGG
Chain of human HDAC1 (Q13547 whole entry): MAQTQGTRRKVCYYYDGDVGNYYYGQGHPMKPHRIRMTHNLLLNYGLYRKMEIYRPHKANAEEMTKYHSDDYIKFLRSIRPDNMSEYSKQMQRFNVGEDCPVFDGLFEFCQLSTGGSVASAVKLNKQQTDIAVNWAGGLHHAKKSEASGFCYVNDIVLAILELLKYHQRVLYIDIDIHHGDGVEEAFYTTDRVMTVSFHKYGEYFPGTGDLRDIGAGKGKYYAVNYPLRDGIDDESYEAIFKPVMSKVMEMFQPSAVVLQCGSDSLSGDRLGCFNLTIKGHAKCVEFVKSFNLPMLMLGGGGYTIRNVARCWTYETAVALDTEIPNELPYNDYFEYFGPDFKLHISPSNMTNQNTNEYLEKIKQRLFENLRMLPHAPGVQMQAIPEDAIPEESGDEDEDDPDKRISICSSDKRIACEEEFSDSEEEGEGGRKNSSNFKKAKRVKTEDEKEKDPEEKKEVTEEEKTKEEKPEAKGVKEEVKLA
Chain of human HDAC2 (Q92769 whole entry): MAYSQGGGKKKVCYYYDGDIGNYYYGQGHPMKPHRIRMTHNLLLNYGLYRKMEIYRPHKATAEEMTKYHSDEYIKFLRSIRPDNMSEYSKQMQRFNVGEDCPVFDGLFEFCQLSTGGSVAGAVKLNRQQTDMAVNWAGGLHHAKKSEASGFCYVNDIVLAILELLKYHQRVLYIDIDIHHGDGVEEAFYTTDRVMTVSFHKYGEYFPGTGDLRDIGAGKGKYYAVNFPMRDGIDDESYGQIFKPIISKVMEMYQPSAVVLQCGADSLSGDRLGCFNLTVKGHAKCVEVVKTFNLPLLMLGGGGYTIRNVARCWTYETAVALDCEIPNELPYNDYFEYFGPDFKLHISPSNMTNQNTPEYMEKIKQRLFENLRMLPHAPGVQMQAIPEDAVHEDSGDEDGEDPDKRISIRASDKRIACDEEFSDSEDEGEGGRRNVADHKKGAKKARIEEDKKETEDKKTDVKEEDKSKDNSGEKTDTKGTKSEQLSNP

Row | Compound | IC50 (HDAC6) | IC50 (human HDAC1) | IC50 (human HDAC2) | IC50 (human HDAC8) | EC50 (KARN cells (Jurkat 2C4); [2]) | EC50 (KARN cells (Jurkat 2C4); [3]) | IC50 [1]
1 | CN1CC(C(=O)N[C@@H](CCCCCC(=O)c2ncco2)c2nc(-c3ccc(F)cc3)c[nH]2)C1 [Example 1, (S)-N-(1-(4-(4-fluorophenyl)-1H-imidazol-2-yl)-7-(oxazol-2-yl)-7-oxoheptyl)-1-methylazetidine-3-carboxamide] | 45000 nM | 1.1 nM |  |  |  |  | 
2 | COc1nc2ccccc2cc1-c1cnc([C@H](CCCCCC(=O)c2ncco2)NC(=O)CN2CCCC2)[nH]1 [Example 52] |  | 0.56 nM | 2.5 nM | 44 nM | 23 nM | 81 nM | 1.1 nM
3 | COc1nc2ccccc2cc1-c1cnc([C@H](CCCCCC(=O)c2ncco2)NC(=O)CN2CCOCC2)[nH]1 [Example 54] |  | 2 nM | 6.3 nM | 88 nM | 76 nM | 680 nM | 1.5 nM
4 | CN1CCC1C(=O)N[C@@H](CCCCCC(=O)c1ccon1)c1ncc(-c2ccccc2F)[nH]1 (stereo partly shown) [Example 60] | > 900 nM | 0.13 nM | 0.41 nM | 1.7 nM | 4.2 nM | 9 nM | 
5 | CCN[C@@H](CCCCCC(=O)c1ncco1)c1ncc(-c2cc3ccc(=O)n(C)c3cc2OC)[nH]1 [Example 77, (S)-6-(2-(1-(ethylamino)-7-(oxazol-2-yl)-7-oxoheptyl)-1H-imidazol-5-yl)-7-methoxy-1-methylquinolin-2(1H)-one] | > 900 nM |  |  | > 900 nM | 120 nM | 120 nM | 
6 | COc1cc2nc(C)ccc2cc1-c1cnc([C@H](CCCCCC(=O)c2ncco2)NC2CCOCC2)[nH]1 [Example 80, (S)-7-(5-(7-methoxy-2-methylquinolin-6-yl)-1H-imidazol-2-yl)-1-(oxazol-2-yl)-7-((tetrahydro-2H-pyran-4-yl)amino)heptan-1-one] | 15000 nM |  | 10 nM | 3500 nM | 550 nM | 680 nM | 5.7 nM
7 | N[C@@H](CCCCCC(=O)c1ccon1)c1cc(-c2ccc(F)cc2)on1 [Example 118, (S)-7-amino-7-(5-(4-fluorophenyl)isoxazol-3-yl)-1-(isoxazol-3-yl)heptan-1-one] | 45000 nM | 2.4 nM | 8 nM | 300 nM | 780 nM | 1600 nM | 
8 | N[C@H](CCCCCC(=O)c1ccon1)c1cc(-c2ccc(F)cc2)on1 [Example 119, (R)-7-amino-7-(5-(4-fluorophenyl)isoxazol-3-yl)-1-(isoxazol-3-yl)heptan-1-one] | 45000 nM | 96 nM | 420 nM | 260 nM | 10000 nM |  | 
9 | NC(CCCCCC(=O)c1ccon1)c1cnn(-c2ccc(F)cc2)c1 (stereo not shown) [Example 122, 7-amino-7-[1-(4-fluorophenyl)-1H-pyrazol-4-yl]-1-isoxazol-3-ylheptan-1-one] |  | 500 nM |  |  |  |  | 570 nM
10 | Cn1cc2cc(-n3ccc([C@H](N)CCCCCC(=O)c4ncco4)n3)ccc2n1 [Example 127, (7R)-7-amino-7-[1-(2-methyl-2H-indazol-5-yl)-1H-pyrazol-3-yl]-1-(1,3-oxazol-2-yl)heptan-1-one] |  | 480 nM | 2600 nM |  |  |  | 770 nM
11 | N[C@@H](CCCCCC(=O)c1ncco1)c1ncc(-c2cc(OC3CCC3)ccc2F)[nH]1 [Example 130, (7S)-7-amino-7-{5-[5-(cyclobutyloxy)-2-fluorophenyl]-1H-imidazol-2-yl}-1-(1,3-oxazol-2-yl)heptan-1-one] | > 900 nM |  |  |  | 1600 nM | 4600 nM | 
12 | N[C@@H](CCCCCC(=O)c1ncco1)c1ncc(-c2cnc(C3CC3)cn2)[nH]1 [Example 131, (7S)-7-amino-7-[5-(5-cyclopropylpyrazin-2-yl)-1H-imidazol-2-yl]-1-(1,3-oxazol-2-yl)heptan-1-one] | > 900 nM |  | 23 nM | > 900 nM | 1300 nM | 1500 nM | 9 nM
13 | N[C@@H](CCCCCC(=O)c1ncco1)c1ncc(-c2cc(F)ccc2F)[nH]1 [Example 135, (7S)-7-amino-7-[5-(2,5-difluorophenyl)-1H-imidazol-2-yl]-1-(1,3-oxazol-2-yl)heptan-1-one] | > 900 nM |  |  | > 900 nM | 5600 nM | 13000 nM | 
14 | N[C@@H](CCCCCC(=O)c1ncco1)c1ncc(-c2ccc(OC(F)(F)F)cc2F)[nH]1 [Example 141, (7S)-7-amino-7-{5-[2-fluoro-4-(trifluoromethoxy)phenyl]-1H-imidazol-2-yl}-1-(1,3-oxazol-2-yl)heptan-1-one] | > 900 nM |  |  | > 900 nM | 2400 nM | 3500 nM | 
15 | N[C@@H](CCCCCC(=O)c1ncco1)c1ncc(-c2cc(OC(F)(F)F)ccc2F)[nH]1 [Example 142, (7S)-7-amino-7-{5-[2-fluoro-5-(trifluoromethoxy)phenyl]-1H-imidazol-2-yl}-1-(1,3-oxazol-2-yl)heptan-1-one] | > 900 nM |  |  |  | 1200 nM | 270 nM | 
16 | COc1nc2ccccc2cc1-c1cnc([C@H](CCCCCC(=O)c2ncco2)NC(=O)c2ccc(OC(F)F)nc2)[nH]1 [Example 146, 6-(difluoromethoxy)-N-[(1S)-1-[5-(2-methoxyquinolin-3-yl)-1H-imidazol-2-yl]-7-(1,3-oxazol-2-yl)-7-oxoheptyl]pyridine-3-carboxamide] |  | 5.3 nM | 16 nM | 96 nM | 130 nM | 440 nM | 2.3 nM
17 | COCC(=O)N[C@@H](CCCCCC(=O)c1ncco1)c1ncc(-c2cc3ccccc3nc2OC)[nH]1 [Example 147, 2-methoxy-N-[(1S)-1-[5-(2-methoxyquinolin-3-yl)-1H-imidazol-2-yl]-7-(1,3-oxazol-2-yl)-7-oxoheptyl]acetamide] | 15000 nM |  |  |  | 50 nM | 490 nM | 
18 | COc1nc2ccccc2cc1-c1cnc([C@H](CCCCCC(=O)c2ncco2)NC(=O)C(C)(F)F)[nH]1 [Example 148, 2,2-difluoro-N-[(1S)-1-[5-(2-methoxyquinolin-3-yl)-1H-imidazol-2-yl]-7-(1,3-oxazol-2-yl)-7-oxoheptyl]propanamide] | 3400 nM |  |  |  | 54 nM | 450 nM | 
19 | COc1nc2ccccc2cc1-c1cnc([C@H](CCCCCC(=O)c2ncco2)NC(=O)C2(c3ccncc3)CC2)[nH]1 [Example 151, N-[(1S)-1-[5-(2-methoxyquinolin-3-yl)-1H-imidazol-2-yl]-7-(1,3-oxazol-2-yl)-7-oxoheptyl]-1-pyridin-4-ylcyclopropanecarboxamide] |  | 2 nM | 7.8 nM | 57 nM | 68 nM | 790 nM | 1.5 nM
20 | COc1nc2ccccc2cc1-c1cnc([C@H](CCCCCC(=O)c2ncco2)NC(=O)c2nc3ccccc3o2)[nH]1 [Example 153, N-[(1S)-1-[5-(2-methoxyquinolin-3-yl)-1H-imidazol-2-yl]-7-(1,3-oxazol-2-yl)-7-oxoheptyl]-1,3-benzoxazole-2-carboxamide] |  | 8.5 nM | 15 nM | 167 nM | 100 nM | 560 nM | 4.2 nM
21 | COc1nc2ccccc2cc1-c1cnc([C@H](CCCCCC(=O)c2ncco2)NC(=O)c2cc3n(n2)CCCC3)[nH]1 [Example 154] |  | 5.1 nM | 20 nM | 110 nM | 120 nM | 570 nM | 2 nM
22 | COc1nc2ccccc2cc1-c1cnc([C@H](CCCCCC(=O)c2ncco2)NC(=O)[C@H]2CCC(=O)N2)[nH]1 [Example 156, N-[(1S)-1-[5-(2-methoxyquinolin-3-yl)-1H-imidazol-2-yl]-7-(1,3-oxazol-2-yl)-7-oxoheptyl]-5-oxo-D-prolinamide] |  | 1.1 nM | 5.4 nM |  | 88 nM | 420 nM | 1.1 nM
23 | COc1nc2ccccc2cc1-c1cnc([C@H](CCCCCC(=O)c2ncco2)NC(=O)[C@@H]2CCC(=O)N2)[nH]1 [Example 157, N-[(1S)-1-[5-(2-methoxyquinolin-3-yl)-1H-imidazol-2-yl]-7-(1,3-oxazol-2-yl)-7-oxoheptyl]-5-oxo-L-prolinamide] |  | 0.64 nM | 4.1 nM |  | 77 nM | 380 nM | 1 nM
24 | COc1cc2nc(C)ccc2cc1-c1cnc([C@H](CCCCCC(=O)c2ncco2)NC(=O)Cn2cccn2)[nH]1 [Example 160, N-[(1S)-1-[5-(7-methoxy-2-methylquinolin-6-yl)-1H-imidazol-2-yl]-7-(1,3-oxazol-2-yl)-7-oxoheptyl]-2-(1H-pyrazol-1-yl)acetamide] | > 900 nM |  | 5.5 nM | 71 nM | 48 nM | 120 nM | 0.54 nM
25 | CN1CC(C(=O)N[C@@](C)(CCCCCC(=O)c2ccon2)c2ncc(-c3ccccc3F)[nH]2)C1 [Example 184, (S)-N-(2-(5-(2-fluorophenyl)-1H-imidazol-2-yl)-8-(isoxazol-3-yl)-8-oxooctan-2-yl)-1-methylazetidine-3-carboxamide] | > 900 nM |  |  |  | 56 nM | 57 nM | 
26 | CN1CC(C(=O)N[C@@H](CCCCCC(=O)c2ccon2)c2nc(Cl)c(-c3ccc(F)cc3)[nH]2)C1 [Example 196, (S)-N-(1-(4-chloro-5-(4-fluorophenyl)-1H-imidazol-2-yl)-7-(isoxazol-3-yl)-7-oxoheptyl)-1-methylazetidine-3-carboxamide 2,3-dihydroxysuccinate] | 4600 nM |  |  |  | 3.8 nM | 7.5 nM | 
